Laboratory results taken from PMC5505960, “A novel STK1-targeted small-molecule as an “antibiotic resistance breaker” against multidrug-resistant Staphylococcus aureus” (Scientific Reports, 2017).
pIC50: −log10 of the molar value.

Legend:
[1] = target: T1, STK1 (STKK1, soluble kinase domain) (Staphylococcus aureus, UniProt A0ABF7PGK0); assay: inhibition of autophosphorylation of purified STKK1 (gamma-32P-ATP); also elution of STK1 from ATP column; assay type: biochemical
T1 construct: gene SA1063; His-tag-STKK1, kinase domain with part of the adjacent juxta-membrane domain (1-280 aa)
T1 sequence (A0ABF7PGK0 entry or part of it): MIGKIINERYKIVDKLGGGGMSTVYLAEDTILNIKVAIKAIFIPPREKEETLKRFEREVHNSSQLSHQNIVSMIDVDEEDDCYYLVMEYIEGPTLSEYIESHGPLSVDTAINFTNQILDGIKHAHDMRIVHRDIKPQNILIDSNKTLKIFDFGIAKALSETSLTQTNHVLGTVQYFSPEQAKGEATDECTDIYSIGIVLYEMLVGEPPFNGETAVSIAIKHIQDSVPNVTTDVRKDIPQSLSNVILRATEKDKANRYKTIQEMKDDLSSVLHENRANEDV

[2] = target: T1, STK1 (STKK1, soluble kinase domain); assay: inhibition of autophosphorylation of purified STKK1 (gamma-32P-ATP); also elution of purified STKK1 from ATP column; assay type: biochemical
[3] = system: WalR-P (STKK1-phosphorylated WalR) (Staphylococcus aureus (ORF numbering of N315; source strain of the clone not stated)); assay: EMSA; conditions: scale: fold bound/free ratio vs unphosphorylated WalR

Compound: Cc1ccc(NC(=O)c2sc(=S)n3c2[nH]c(=O)c2ccccc23)c(C)c1 [Inh2, N-(2,4-Dimethylphenyl)-5-oxo-1-thioxo-4,5-dihydro[1,3]thiazolo[3,4-a] quinazoline-3-carboxamide]
- pIC50 [1]: 4.61

Compound: COC(=O)c1ccc2c(=O)[nH]c3c(C(=O)Nc4ccccc4)sc(=S)n3c2c1 [Inh2-B1, Methyl 5-oxo-3-(phenylcarbamoyl)-1-thioxo-4,5dihydro[1,3]thiazolo[3,4-a]quinazoline-8-carboxylate]
- pIC50 [2]: 4.31

Compound: PSA0710 promoter probe (lytE)
- binding signal [3]: > 2

Compound: PSA2097 promoter probe (ssaA)
- binding signal [3]: > 2
